Source: patent publication US20040229268A1, “Method and kit for identifying antibiotic-resistant microorganisms” (priority 2003, published 2004)
Marks after values point to notes of the source that are not given here.

What was measured:
[1] = system: mecA gene; Staphylococcus ribosomal nucleic acids; assay: HPA after thermal lysis, base hydrolysis and neutralization (Examples 5-7); format: binding, S. aureus
Method: The cultured S. aureus specimens were lysed by suspending 1 μl loops of bacteria in 150 μl of lysis buffer and then incubating at 105° C. for 15 minutes. Next, 100 μl of 2 N LiOH base solution was added and RNA was hydrolyzed by incubating the mixtures at 60° C. for 15 minutes. Hydrolyzed samples were neutralized by the addition of 100 μl of a neutralizing reagent that included 2 N HCl and 100 mM succinate buffer (pH 5.5 prior to acidification with HCl). Specifically hybridized probe was detected by standard HPA, essentially as described in Example 1.
Specimens (1 μl loops of bacteria) were treated and tested essentially as described in Example 5 with the following differences: incubation for lysis was for 15 minutes and incubation for hybridization was for 45 minutes for samples shown in Tables 7-8, while incubation for lysis was for 10 minutes and incubation for hybridization was for 20 minutes for samples shown in Table 9. All of the base-treated solutions were neutralized by the addition of 250 μl of 0.8 N HCl containing 100 mM succinate.
2′-methoxy analogs of the AE-labeled DNA probes were prepared by standard phosphoramidite synthesis using 2′ methoxy phosphoramidite analogs. Additional linker positions, which are indicated by parentheses in Table 11, for probe 2 were also prepared for testing. Deoxy probes and 2′-methoxy probe analogs were tested essentially as described in Example 5, except as noted below. Probes synthesized using 2′-methoxy nucleotide analogs are particularly identified by the “MeO” designations. Brief summaries of the procedures used to obtain the results are appended to the tables.

[2] = system: VanA and VanB gene sequences; assay: HPA for detecting VanA and VanB gene sequences (Example 12); format: binding, E. faecalis, E. faecium
Method: Double-stranded plasmids harboring inserts of either VanA or VanB gene sequences were prepared for use as control templates. More specifically, VanA gene sequences were amplified in a PCR protocol using primers having the sequences of VanA(+)464 Kpn and VanA(−)1325Bam. Similarly, VanB gene sequences were amplified using primers having the sequences of VanB(+)084 Kpn and VanB(−)1006Bam. Genomic DNA samples from bacteria known to have VanA or VanB genotypes were used as templates in the amplification reactions. Blunt-ended amplification products containing VanA gene sequences were ligated into a pPCR-[…] SK(+) (Stratagene; La Jolla, Calif.) plasmid cloning vector, and propagated in E. coli host bacteria using procedures that will be familiar to those having an ordinary level of skill in the art. Double-stranded amplification products containing VanB gene sequences were first digested with KpnI and BamHI, and then ligated into a similarly cleaved pBLUESCRIPT-II KS(+) (Stratagene; La Jolla, Calif.) plasmid cloning vector. Isolated double-stranded plasmid DNA served as controls in hybridization assays.
2′-deoxy probes having the sequences presented under Example 10 were prepared by standard phosphoramidite synthesis. AE labeling of the probes also was performed using standard procedures, as described herein and as will be familiar to those having an ordinary level of skill in the art. Samples of four different cultured VRE bacteria described under the previous Example were lysed essentially as described above. RNA in the samples was hydrolyzed and DNA denatured by incubation of the lysate with hydroxide at elevated temperature. In parallel procedures, samples of two plasmid clones harboring either the VanA or VanB inserts (as described under the previous Example) were also treated to denature DNA. All samples were neutralized by addition of a buffered HCl reagent. AE-labeled probes were added to each of the samples and then hybridized at 55-60° C. for 45 minutes to permit formation of complementary probe:target duplexes. The pan-bacterial probe (Probe Reagent 1, GEN-PROBE® MTC-NI Kit, catalog no. 4573) described under Example 2 was used as a positive control to confirm the presence of bacterial nucleic acid targets. Trials containing labeled probe in the absence of an added target (i.e., “probe alone”) served as negative controls. The AE label joined to probe molecules that remained single-stranded following the hybridization procedure were destroyed by treatment under mild alkaline conditions, and the extent of specific hybrid formation quantified by luminometry as described in the foregoing Examples.

[3] = ATCC 51299 (VanB), E. faecalis lysate
[4] = ATCC 51575 (VanB), E. faecalis lysate
[5] = ATCC 700221 (VanA), E. faecium lysate
[6] = ATCC 700802 (VanB), E. faecalis lysate
[7] = samples containing nucleic acids from VanB-positive VRE bacteria
[8] = Table 7, lysis 15 minutes, hybridization 45 minutes
[9] = Table 9, lysis 10 minutes, hybridization 20 minutes
[10] = Table 11, neutralize 250 μl 0.8 N HCl containing 100 mM succinate, hybridize 45 minutes at 60° C.
[11] = Table 8, lysis 15 minutes, hybridization 45 minutes
[12] = samples containing nucleic acids from the single VanA-positive bacterial isolate
[13] = VanA-positive bacterial sample ATCC # 700221
[14] = average over VanB-positive bacterial samples ATCC Nos. 51575, 700802 and 51299
[15] = Table 10, neutralize 100 μl 2 N HCl containing 200 mM succinate, hybridize 45 minutes at 60° C.

| Substance | Probe Hybridization (in RLU) [2, 3] [RLU] | Probe Hybridization (in RLU) [2, 4] [RLU] | Probe Hybridization (in RLU) [2, 5] [RLU] | Probe Hybridization (in RLU) [2, 6] [RLU] | Probe Hybridization (in RLU) ([2]; Probe Alone (no added target)) [RLU] | Probe Hybridization (in RLU) ([2]; VanA clone (plasmid)) [RLU] | Probe Hybridization (in RLU) ([2]; VanB clone (plasmid)) | GP1217(Pos) RLU [1, 9] [RLU] | Probe alone Avg RLU [1, 9] [RLU] | further results |
| --- | --- | --- | --- | --- | --- | --- | --- | --- | --- | --- |
| CCACTCAAGAGAGACAACATTTTCGACTAC (chemistry not given here) [S. aureus probe with helpers] |  |  |  |  |  |  |  |  |  | RLU ([1]; Table 6, GP18(Neg), MSSA ATCC #12600): 148,780 RLU; RLU ([1]; Table 6, GP1214(Neg), MSSA ATCC #29247): 203,725 RLU; RLU ([1]; Table 6, GP1217(Pos), MRSA ATCC #33591): 199,476 RLU; RLU ([1]; Table 6, GP1218(Pos), MRSA ATCC #43866): 163,825 RLU |
| CCGCAGCTTGCATGGACAAATCACTGGC (DNA, backbone and methylation of C not given here; further chemistry not fully specified; listed as Enterococcus faecalis) [VanB(+)084] | 7863 | 6003 | 768 | 10119 | 371 | 716 | 54711 RLU |  |  | hybridization signal (in words) [2, 7]: very strong signals |
| CGATTGTGACACGATAGCCATCTTCATGTTGGAGC (DNA, backbone and methylation of C not given here; acridinium ester label on internal non-nucleotide linker; listed as Staphylococcus aureus) [probe 6] |  |  |  |  |  |  |  | 55947 | 1004 | GP18(Neg) RLU [1, 8]: 1195 RLU; GP1217(Pos) RLU [1, 8]: 38158 RLU; Probe alone Avg RLU [1, 8]: 6117 RLU; GP1214(Neg) RLU [1, 10]: 1994 RLU; GP1217(Pos) RLU [1, 10]: 43307 RLU; Probe alone Avg RLU [1, 10]: 1540 RLU |
| CGCATCCATCAGGAAAACGAGCCGG (DNA, backbone and methylation of C not given here; acridinium ester (AE) label attached via linker; listed as Enterococcus faecalis) [VanB(+)428] | 8113 | 6307 | 683 | 9657 | 370 | 684 | 49242 RLU |  |  | hybridization signal (in words) [2, 7]: very strong signals |
| CGGACGTTCAGTCATTTCTACTTCACCATTATCGC (DNA, backbone and methylation of C not given here; acridinium ester label on internal non-nucleotide linker; listed as Staphylococcus aureus) [probe 4] |  |  |  |  |  |  |  | 34352 | 734 | GP18(Neg) RLU [1, 11]: 641 RLU; GP1217(Pos) RLU [1, 11]: 20192 RLU; Probe alone Avg RLU [1, 11]: 690 RLU |
| CGTTCAGTACAATGCGGCCG (DNA, backbone and methylation of C not given here; further chemistry not fully specified; listed as Enterococcus faecium) [VanA(−)1325] | 1182 | 1761 | 23523 | 931 | 368 | 24378 | 942 RLU |  |  | hybridization signal (in words) [2, 12]: very strong hybridization signals |
| GAGCTTTGAATATCGCAGCCTAC (AE label linker 11/12, chemistry not fully specified; listed as Enterococcus faecalis) [Van A&B(−)734] | 5497 | 5166 | 8901 | 7425 | 240 | 48999 | 718† RLU |  |  | background-corrected hybridization signal relative to negative control (fold greater than background) [2, 13]: about 36 fold; background-corrected hybridization signal relative to negative control (fold greater than background) [2, 14]: about 24 fold; hybridization signal (in words) ([2]; nucleic acids from VRE bacteria either VanA-positive or VanB-positive): very strong signals |
| GCGATAATGGTGAAGTAGAAATGACTGAACGTCCG (DNA, backbone and methylation of C not given here; acridinium ester label on internal non-nucleotide linker; listed as Staphylococcus aureus) [probe 3] |  |  |  |  |  |  |  | 46566 | 684 | GP18(Neg) RLU [1, 11]: 371 RLU; GP1217(Pos) RLU [1, 11]: 36123 RLU; Probe alone Avg RLU [1, 11]: 445 RLU; GP1214(Neg) RLU [1, 10]: 1303 RLU; GP1217(Pos) RLU [1, 10]: 36993 RLU; Probe alone Avg RLU [1, 10]: 1098 RLU |
| GCTCCAACATGAAGATGGCTATCGTGTCACAATCG (DNA, backbone and methylation of C not given here; acridinium ester label on internal non-nucleotide linker; listed as Staphylococcus aureus) [probe 5] |  |  |  |  |  |  |  | 42816 | 2823 | GP18(Neg) RLU [1, 8]: 1250 RLU; GP1217(Pos) RLU [1, 8]: 37472 RLU; Probe alone Avg RLU [1, 8]: 4088 RLU |
| GCTGAGCTTTGAATATCGCAGCC (AE label linker 8/9, chemistry not fully specified; listed as Enterococcus faecium) [VanA(−)792] | 2983 | 2254 | 10627 | 3653 | 256 | 52729 | 505 RLU |  |  | background-corrected hybridization signal relative to negative control (fold greater than background) [2, 13]: about 40 fold; background-corrected hybridization signal relative to negative control (fold greater than background) [2, 14]: about 10.5 fold; hybridization signal (in words) [2, 12]: very strong hybridization signals |
| GGGTTGCTCAGAGGAGCATGACGTATCGG (DNA, backbone and methylation of C not given here; further chemistry not fully specified; listed as Enterococcus faecium) [VanA(+)464] | 765 | 696 | 10910 | 757 | 374 | 37434 | 817 RLU |  |  | hybridization signal (in words) [2, 12]: very strong hybridization signals |
| MeO-probe 1: 2′-methoxy analog of AE-labeled probe 1 (SEQ ID NO:1) (DNA GGTATGTGGAAGTTAGATTGGGATCATAGCG; all 2'-O-methyl, backbone and T or U not given here; acridinium ester label on internal non-nucleotide linker; listed as Staphylococcus aureus) |  |  |  |  |  |  |  |  |  | GP1214(Neg) RLU [1, 15]: 2308 RLU; GP1217(Pos) RLU [1, 15]: 62594 RLU; Probe alone Avg RLU [1, 15]: 1879 RLU; GP1214(Neg) RLU [1, 10]: 975 RLU; GP1217(Pos) RLU [1, 10]: 33659 RLU; Probe alone Avg RLU [1, 10]: 779 RLU |
